# Values quoted from earlier work, collected in US6083980A, “Furanyl, tetracyclic triterpene derivatives with immunosuppressant activity” (Merck & Co., Inc., priority 1998, dated 2000).
# Test system: Kv 1.3 channels (CHO cells transfected with Kv 1.3 channels)
# Settings: stated for the reference blocker used to establish the efflux window
substance,measurement,value
"margatoxin (TIINVKCTSPKQCLPPCKAQFGQSAGAKCMNGKCKCYPH; UniProt P40755 1-39, looked up)",IC50,100 pM
